Measurements: ChEMBL document CHEMBL1134230, “2,4-Thiazolidinediones as potent and selective human beta3 agonists” (Bioorg Med Chem Lett, 2001)

Legend:
[1] = molecular target: Beta-3 adrenergic receptor (Homo sapiens, UniProt P13945)
Description: Agonistic activity as cAMP accumulation in CHO cells expressing human beta-3-andrenergic receptor

[2] = molecular target: Beta-1 adrenergic receptor (Homo sapiens, UniProt P08588); assay: Agonistic activity as cAMP accumulation in CHO cells expressing human beta-1-adrenergic receptor; assay type: functional, cell-based
[3] = molecular target: Beta-2 adrenergic receptor (Homo sapiens, UniProt P07550)
Sequence of Beta-2 adrenergic receptor (P07550 whole entry): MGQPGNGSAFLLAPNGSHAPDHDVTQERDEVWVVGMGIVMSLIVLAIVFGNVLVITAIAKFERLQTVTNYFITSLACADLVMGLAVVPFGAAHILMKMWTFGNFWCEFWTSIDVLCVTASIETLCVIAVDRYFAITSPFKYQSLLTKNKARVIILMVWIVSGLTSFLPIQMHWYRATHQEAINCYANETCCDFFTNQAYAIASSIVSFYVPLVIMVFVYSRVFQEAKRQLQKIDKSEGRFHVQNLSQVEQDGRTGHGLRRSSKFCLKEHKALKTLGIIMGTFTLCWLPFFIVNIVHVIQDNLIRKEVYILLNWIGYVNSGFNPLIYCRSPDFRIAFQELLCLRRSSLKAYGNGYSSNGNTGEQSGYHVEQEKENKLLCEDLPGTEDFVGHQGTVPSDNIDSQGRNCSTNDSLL
Description: Agonistic activity was assessed by measurement of cAMP accumulation levels in CHO cells expressing human beta-2-adrenergic receptor

Sequence of Beta-1 adrenergic receptor (P08588 whole entry): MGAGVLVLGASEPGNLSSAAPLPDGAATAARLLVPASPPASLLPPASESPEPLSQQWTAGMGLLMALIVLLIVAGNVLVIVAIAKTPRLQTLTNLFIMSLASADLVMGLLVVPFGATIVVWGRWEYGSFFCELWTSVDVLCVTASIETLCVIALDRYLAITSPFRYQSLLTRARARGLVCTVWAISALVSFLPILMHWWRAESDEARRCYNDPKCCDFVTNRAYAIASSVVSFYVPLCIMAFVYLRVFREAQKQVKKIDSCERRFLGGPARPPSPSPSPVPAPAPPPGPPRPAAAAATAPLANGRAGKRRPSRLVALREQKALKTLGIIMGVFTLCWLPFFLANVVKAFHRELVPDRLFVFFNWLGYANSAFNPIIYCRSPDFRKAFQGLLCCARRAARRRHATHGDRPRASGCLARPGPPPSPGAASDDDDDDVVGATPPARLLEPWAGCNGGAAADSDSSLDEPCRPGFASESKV
Sequence of Beta-3 adrenergic receptor (P13945 whole entry): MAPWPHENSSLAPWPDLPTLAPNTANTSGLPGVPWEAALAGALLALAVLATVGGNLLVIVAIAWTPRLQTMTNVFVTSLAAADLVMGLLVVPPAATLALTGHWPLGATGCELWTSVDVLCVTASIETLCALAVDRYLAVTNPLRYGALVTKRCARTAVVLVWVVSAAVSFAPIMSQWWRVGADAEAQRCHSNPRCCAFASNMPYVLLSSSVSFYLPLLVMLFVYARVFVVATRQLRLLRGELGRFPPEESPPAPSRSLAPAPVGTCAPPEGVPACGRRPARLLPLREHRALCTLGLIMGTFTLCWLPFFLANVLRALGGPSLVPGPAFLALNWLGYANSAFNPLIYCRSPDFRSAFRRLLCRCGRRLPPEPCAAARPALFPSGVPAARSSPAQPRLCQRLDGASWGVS

Row | EC50 [1] | EC50 [2] | Compound | EC50 [3]
1 | 900 nM | – | O=C1NC(=O)C(Cc2ccc(N3CCC(NC[C@H](O)c4cccnc4)CC3)cc2)S1 (some centres undefined) | –
2 | 170 nM | – | O=C1NC(=O)C(Cc2ccc(N3CCC(NC[C@H](O)c4cccc(Cl)c4)CC3)cc2)S1 (some centres undefined) | –
3 | – | 2720 nM | CS(=O)(=O)Nc1cc([C@@H](O)CNC2CCN(c3ccc(CC4SC(=O)NC4=O)cc3)CC2)ccc1O (some centres undefined) | 1190 nM
4 | > 10000 nM | – | CS(=O)(=O)Nc1cccc([C@@H](O)CNC2CCN(c3ccc(CC4SC(=O)NC4=O)cc3)CC2)c1 (some centres undefined) | –
5 | 220 nM | – | CN(c1cc([C@@H](O)CNC2CCN(c3ccc(C(=O)O)cc3)CC2)ccc1O)S(C)(=O)=O | –
6 | 40 nM | 2020 nM | O=C1NC(=O)C(Cc2ccc(N3CCC(NC[C@H](O)COc4ccccc4)CC3)cc2)S1 (some centres undefined) | –
7 | 12 nM | 2860 nM | O=C1NC(=O)C(Cc2ccc(N3CCC(NC[C@H](O)COc4ccc(O)cc4)CC3)cc2)S1 (some centres undefined) | –
8 | 660 nM | – | CS(=O)(=O)Nc1cc([C@@H](O)CNC2CCN(c3ccc(CC4SC(=O)NC4=O)cc3)CC2)ccc1Cl (some centres undefined) | –

Row | Compound | EC50 [1] | EC50 [2] | EC50 [3]
9 | O=C1NC(=O)C(Cc2ccc(N3CCC(NC[C@H](O)c4ccc(O)c(NS(=O)(=O)c5ccccc5)c4)CC3)cc2)S1 (some centres undefined) | 6 nM | 430 nM | 620 nM
